In US20250339631A1, “CONTROLLED RELEASE OF […] A SOURCE MATERIAL STORED OVER TIME” (Syqe Medical Ltd., priority 2022, published 2025):

Key:
[1] = Stability of ground MC powder stored under refrigeration, pre-packaging; format: physicochemical; conditions: 5° C.±2° C., baseline to 3 months post grinding; one-way ANOVA
Experimental: In the described experiment, Bedrocan strain MC powder was stored at 5° C.±2° C. with up to 12% relative humidity (RH) in a polypropylene container, sealed in an aluminum foil pouch (Oliver-Tolas Healthcare Packaging B.V.; Venray, Netherlands). In order to assess its stability during the handling and hold time, samples were taken from three separate growing batches and assayed at baseline and at 1, 2 and 3 months post grinding. Each sample was assayed for loss on drying (LOD), and of the concentrations of the major phytocannabinoids (CBDA, CBD, CBGA, CBN, THCA and THC).
(§1) Analysis of cannabis inflorescences for the main phytocannabinoids (CBDA, CBD, CBGA, CBN, THCA and THC) was performed as follows: 100 mg of ground Cannabis inflorescences were weighed in duplicate from one container and extracted with 25 mL methanol then sonicated for 40 min and centrifuged at 3000 rpm for 5 min. All samples were filtered through a 0.22 μm PP filter vail prior to analysis. The dilution and quantitation were preformed corresponding to calibration curves. The main six phytocannabinoids were analyzed by ultra-high-performance liquid chromatography (UHPLC: […]) system with a refrigerated auto-sampler, thermostatic column oven and ultraviolet detector, Waters ACQUITY UPLC H-Class. Chromatographic separation was achieved using UPLC column Waters Acquity C18, 1.7 μm particles, 2.1×150 mm maintained at 30° C. The phytocannabinoids were separated using a gradient elution with mobile phases of 0.1% (v/v) formic acid in double-distilled water (phase A) and acetonitrile (phase B), respectively. A constant flow rate of 0.4 mL/min was employed throughout. The gradient profile varied from 70% to 100% B in 10.5 min, held for 0.5 min in these conditions and then returned to the initial conditions.
(§2) For THC and CBD, the concentrations of the acid and its neutral counterpart were summed and reported as the total content. For example, the concentration of total THC […] was calculated as: Total THC=THCA * 0.877+THC, with 0.877 being the molar ratio between the two compounds that corrects for a change in the mass of THCA as a result of the loss of CO2 (decarboxylation). This is shown in FIG. 7A: “U-HPLC analysis of the Bedrocan cultivar”.
(§3) R software (V.1.1.463) with tidyverse (17) package was used to analyze changes in outcome measures by one way ANOVA test, using Fisher's exact test analysis. All analyses were followed by a Tukey post-hoc test for multiple comparison. Data are presented as Mean±95% confidence interval (CI). Differences were considered significant at the p<0.05 level.

[2] = Long-term stability of ground cannabis packaged in Syqe cartridges at room temperature; format: physicochemical; conditions: 25° C.±2° C., RH 60%±5%, baseline to 24 months; one-way ANOVA
Experimental: (§4) In some embodiments, once cartridges are produced, they are stored, distributed and used at RT. In order to assess the shelf life of such cartridges, a long-term stability study was performed, during which cartridges were stored at 25° C.±2° C. (RH 60%±5%) in a calibrated and certified stability chamber (Memmert Constant climate chamber HPP260). 9, 6, 9, 8, 7, 4 and 4 separate growing batches were tested at baseline and after 3, 6, 9, 12, 18 and 24 months, respectively. At each time point samples of the ground inflorescence within the cartridges were analyzed for LOD and for the amount (mg) of each of the major phytocannabinoids (CBDA, CBD, CBGA, CBN, THCA and THC). Of the same batches, THC aerosolized by the Syqe inhaler was analyzed at baseline and at 6, 9, 18 and 24 months.
as §1, §2, §3

[3] = Stability of ground cannabis in Syqe cartridges stored at 30° C.; format: physicochemical; conditions: 30° C.±2° C., 65% RH, baseline to 6 months; one-way ANOVA
Experimental: Additionally, to assess the effects of a warmer temperature on MC, Syqe cartridges were stored post-production at an elevated temperature and humidity of 30° C.±2° C. (65% RH+5% RH). Three different growing batches were analyzed at baseline and at 1, 2, 4 and 6 months of storage.
as §1, §2, §3

[4] = THC dose aerosolized by the Syqe inhaler from stored cartridges; format: physicochemical; conditions: inhaler set to 500 μg THC, Mean±95% CI
Experimental: Methods: MC inflorescences were ground to a fine powder and the concentrations of the major phytocannabinoids therein were analyzed at different time points using ultra-high performance liquid chromatography (U-HPLC). Storage was done under different temperature and humidity conditions, before or after being packaged in Syqe cartridges. MC aerosolized by a the Syqe inhaler using Syqe cartridges stored for up to 2 years at 25° C. was analyzed for THC doses.
as §4
In some embodiments, the Syqe inhaler is preprogrammed with several distinct heating protocols. […]

[5] = after four years, room temperature (22 C), light or darkness (storage conditions A and B); cited from earlier work
[6] = Vaporization of THC and terpenes from ground cannabis heated to target temperatures; format: physicochemical; conditions: 135 mg ground cannabis; vaporized THC measured in the aerosol; targets 60-150° C.
Experimental: The vaporization plots in FIGS. 6A-B show results of an experiment performed by the inventors in which samples of 135 mg of ground cannabis were heated to several target temperatures, including 60° C., 70° C., 80° C., 90° C., 100° C., 110° C., 120° C., 130° C., 140° C. and 150° C. At each of the target temperatures, vaporized THC was measured in the aerosol. At each of the target temperatures, the residual mass of ground cannabis was analyzed using Gas Chromatography —Mass Spectrometry (GC/MS) to determine existence of terpenes, such as: Linalool, Isopulegol, Geraniol, Caryophyllene, 26.82 Humulene<alpha->and Nerolidol. The total terpenes residue (as remaining in the ground cannabis) is indicated by the dashed line in FIG. 6A. Based on the residual mass of terpenes, the released (vaporized) amount terpenes was calculated, by subtracting the measured residual mass from a respective reference mass.

SMILES	change in phytocannabinoid concentration during the study period [1]	change in phytocannabinoid amount [2]	change in phytocannabinoid amount [3]	aerosolized THC dose ([4]; 6 months at 25° C.) [µg]	aerosolized THC dose ([4]; BL) [µg]	THC degraded [5] [%]	target temperature at which release started [6] [degrees C.]
C=C(C)[C@@H]1CCC(C)=C[C@H]1c1c(O)cc(CCCCC)c(C(=O)O)c1O [CBDA, cannabidiolic acid]	no significant change	no significant change					
CCCCCc1cc(O)c2c(c1)OC(C)(C)c1ccc(C)cc1-2 [CBN, Cannabinol]	no significant change	increased significantly	increased significantly				
CCCCCc1cc2c(c(O)c1C(=O)O)[C@@H]1C=C(C)CC[C@H]1C(C)(C)O2 (relative stereo) [THCA, (-)-Δ^9-trans-tetrahydrocannabinolic acid]	no significant change	decreased significantly	decreased significantly				
CCCCCc1cc(O)c(C/C=C(\C)CCC=C(C)C)c(O)c1C(=O)O [CBGA, cannabigerolic acid]	no significant change	decreased significantly	decreased significantly				
CCCCCc1cc(O)c2c(c1)OC(C)(C)[C@@H]1CCC(C)=C[C@@H]21 [THC, (-)-Δ^9-trans-tetrahydrocannabinol]	no significant change	increased significantly	increased significantly	486.30 ± 50.56	484.76 ± 31.28	~100	130
